In patent publication US20100144712A1 (priority 2007, published 2010):
Converted amounts (≈) assume the structure as drawn.

Key:
Format in all cases: cell-based
[1] = tested on: Candida albican ATCC 62342; assay: In vitro antifungal activity (MIC80), Candida albican ATCC 62342; details: Candida, ATCC62342; Table 2, 62342; read-out: Minimal inhibitory concentration (MIC80)
Method: (§1) In vitro antifungal activities of the inventive antifungal compounds were evaluated using test strains including Candida albican (ATCC 90873, 204276, 62342, 64124, 64550, 96901, MYA-573, MYA-574, MYA-575, MYA-576, MYA-1003) and Aspergillus fumigatus (ATCC 16424). Test samples and positive control samples were prepared by dissolving the inventive compounds and comparative compounds, i.e., amphotericin B, fluconazole and itraconazole, in DMSO, respectively, and each successively diluted with medium to obtain test and positive control solutions having test compound concentrations of 0.125 μg/ml to a maximum concentration not generating turbidity. Minimal inhibitory concentration (MIC80) of each compound was determined as the lowest concentration of the test compounds required to reduce growth by 80% relative to a control strain not treated.
(§2) 1) Test strain: Candida albican ATCC 90873, 204276, 62342, 64124, 64550, 96901, MYA-573, MYA-574, MYA-575, MYA-576, MYA-1003, and Aspergillus fumigatus ATCC 16424 were commercially obtained from The American Type Culture Collection (ATCC) and subcultured in CHEMON Co. Ltd. (amphotericin B was commercially purchased from Sigma, and fluconazole and itraconazole were prepared according to methods described in British Patent No. 2,099,818; and U.S. Pat. No. 4,267,179, respectively).
(§3) 2) Medium and culture condition: Candida albican was cultured in Sabourad Dextrose Agar, YM Agar or Potato Dextrose Agar according to ATCC information at a temperature of 37° C., 35° C., 30° C. or 25° C. Aspergillus fumigatus was cultured in Malt Extract Agar or Potato Dextrose Agar at a temperature ranging from 24 to 27° C.
(§4) 3) Preparation of test samples: the inventive compounds and comparative compounds were each diluted with DMSO to obtain 1 to 2 ml of a test sample in a concentration of 100-folds of the determining maximum concentration (256 μg/ml).
(§5) The test samples were each successively diluted with RPMI 1640 to obtain test solutions having concentrations of […] in a 12×75 mm sterilized disposable culture tube. The final concentration of DMSO was adjusted to […] (v/v).
(§6) 5) Preparation of strain solution and inoculation
(§7) Candida albican strains were each subcultured in Sabourad Dextrose Agar, YM Agar or Potato Dextrose Agar medium at 35° C. for 2˜3 days. In the case of yeasts, a single colony was taken from prominent colonies and suspended in 0.85% sterile physiological saline solution and the turbidity of the suspension was adjusted to 80˜82% at 530 nm, and then diluted 50-fold with RPMI 1640 medium to 1.0×10^3˜5.0×10^3 CFU/ml. The turbidity of fungi was adjusted to 80˜82% and the suspension was diluted 50-fold to […]. Aspergillus fumigatus strains were subcultured in Malt Extract Agar for 7˜10 days, and a single colony was taken from prominent colonies and suspended in 0.85% sterile physiological saline solution and the suspension was adjusted to 0.108 at 530 nm, and then diluted 1000-fold with RPMI 1640 medium to 0.4×10^2˜5×10^4 CFU/ml. The turbidity of fungi was adjusted to 80˜82% and the suspension was diluted 50-fold to 0.4102˜0.5104 CFU/ml.
(§8) The strain solutions thus obtained were each seeded into a sterilized 96-well microplate, 0.1 ml of each test solution were added thereto, and […] of alamarblue was treated to each well (Biosource, #DAL1100). This procedure was repeated 2 times.
(§9) Minimal inhibitory concentration (MIC80) of each compound was determined as the lowest concentration of the test compounds required to reduce growth by 80% relative to a control strain not treated.

[2] = tested on: Candida albican ATCC MYA-573; assay: In vitro antifungal activity (MIC80), Candida albican ATCC MYA-573; details: Candida; Table 2, MYA 573; read-out: Minimal inhibitory concentration (MIC80)
Method: as §1, §2, §3, §4, §5, §6, §7, §8, §9

[3] = tested on: Candida albican ATCC MYA-574; assay: In vitro antifungal activity (MIC80), Candida albican ATCC MYA-574; details: Candida; Table 2, MYA 574; read-out: Minimal inhibitory concentration (MIC80)
Method: as §1, §2, §3, §4, §5, §6, §7, §8, §9

[4] = tested on: Candida albican ATCC MYA-575; assay: In vitro antifungal activity (MIC80), Candida albican ATCC MYA-575; details: Candida; Table 2, MYA 575; read-out: Minimal inhibitory concentration (MIC80)
Method: as §1, §2, §3, §4, §5, §6, §7, §8, §9

[5] = tested on: Candida albican ATCC MYA-1003; assay: In vitro antifungal activity (MIC80), Candida albican ATCC MYA-1003; details: Candida; Table 2, MYA 1003; read-out: Minimal inhibitory concentration (MIC80)
Method: as §1, §2, §3, §4, §5, §6, §7, §8, §9

[6] = tested on: Candida albican ATCC MYA-576; assay: In vitro antifungal activity (MIC80), Candida albican ATCC MYA-576; details: Candida; Table 2, MYA 576; read-out: Minimal inhibitory concentration (MIC80)
Method: as §1, §2, §3, §4, §5, §6, §7, §8, §9

[7] = tested on: Candida albican ATCC 96901; assay: In vitro antifungal activity (MIC80), Candida albican ATCC 96901; details: Candida, ATCC96901; Table 2, ATCC 96901; read-out: Minimal inhibitory concentration (MIC80)
Method: as §1, §2, §3, §4, §5, §6, §7, §8, §9

[8] = tested on: Candida albican ATCC 64124; assay: In vitro antifungal activity (MIC80), Candida albican ATCC 64124; details: Candida, ATCC64124; Table 2, 64124; read-out: Minimal inhibitory concentration (MIC80)
Method: as §1, §2, §3, §4, §5, §6, §7, §8, §9

[9] = tested on: Candida albican ATCC 90873; assay: In vitro antifungal activity (MIC80), Candida albican ATCC 90873; details: Candida, ATCC90873; Table 2, ATCC 90873; read-out: Minimal inhibitory concentration (MIC80)
Method: as §1, §2, §3, §4, §5, §6, §7, §8, §9

[10] = tested on: Candida albican ATCC 64550; assay: In vitro antifungal activity (MIC80), Candida albican ATCC 64550; details: Candida, ATCC64550; Table 2, 64550; read-out: Minimal inhibitory concentration (MIC80)
Method: as §1, §2, §3, §4, §5, §6, §7, §8, §9

Compound	MIC80 [1] [µg/mL]	MIC80 [2] [µg/mL]	MIC80 [3] [µg/mL]	MIC80 [4] [µg/mL]	MIC80 [5] [µg/mL]	MIC80 [6] [µg/mL]	MIC80 [7] [µg/mL]	MIC80 [8] [µg/mL]	MIC80 [9] [µg/mL]	MIC80 [10] [µg/mL]
C[C@@H](N1CCN(c2cccc(OCC3CC3)n2)CC1)[C@](O)(Cn1cncn1)c1ccc(F)cc1F [Example 21, (2R,3R)-3-(4-(6-(cyclopropylmethoxy)pyridin-2-yl)piperazin-1-yl)-2-(2,4-difluorophenyl)-1-(1H-1,2,4-triazol-1-yl)butan-2-ol]	8 (≈ 16.5 µM)	8 (≈ 16.5 µM)	128 (≈ 264 µM)	0.25 (≈ 0.516 µM)	> 128	0.25 (≈ 0.516 µM)	> 128	> 128	0.125 (≈ 0.258 µM)	8 (≈ 16.5 µM)
C[C@@H](N1CCCN(c2nc3ccccc3o2)CC1)[C@](O)(Cn1cncn1)c1ccc(F)cc1F [Example 15, (2R,3R)-3-(4-(benzooxazol-2-yl)-1,4-diazepan-1-yl)-2-(2,4-difluorophenyl)-1-(1H-1,2,4-triazol-1-yl)butan-2-ol]	0.25 (≈ 0.534 µM)	0.5 (≈ 1.07 µM)	1 (≈ 2.13 µM)	0.125 (≈ 0.267 µM)	> 128	0.125 (≈ 0.267 µM)	16 (≈ 34.2 µM)	8 (≈ 17.1 µM)	0.125 (≈ 0.267 µM)	2 (≈ 4.27 µM)
C[C@@H](N1CCN(c2ccc(OCc3ccccc3)nc2)CC1)[C@](O)(Cn1cncn1)c1ccc(F)cc1F [Example 29, (2R,3R)-3-(4-(6-(benzyloxy)pyridin-3-yl)piperazin-1-yl)-2-(2,4-difluorophenyl)-1-(1H-1,2,4-triazol-1-yl)butan-2-ol]	0.5 (≈ 0.96 µM)	1 (≈ 1.92 µM)	1 (≈ 1.92 µM)	0.25 (≈ 0.48 µM)	> 128	0.125 (≈ 0.24 µM)	> 128	4 (≈ 7.68 µM)	0.125 (≈ 0.24 µM)	1 (≈ 1.92 µM)
CC(N1CCCN(c2ccc(C#N)nc2)CC1)C(O)(Cn1cncn1)c1ccc(F)cc1F (stereo not drawn) [Example 39]	4 (≈ 8.82 µM)	1 (≈ 2.21 µM)	2 (≈ 4.41 µM)	0.125 (≈ 0.276 µM)	16 (≈ 35.3 µM)	0.125 (≈ 0.276 µM)	32 (≈ 70.6 µM)	128 (≈ 282 µM)	0.125 (≈ 0.276 µM)	2 (≈ 4.41 µM)
CC(C)Oc1cccc(N2CCN([C@H](C)[C@](O)(Cn3cncn3)c3ccc(F)cc3F)CC2)n1 [Example 24, (2R,3R)-2-(2,4-difluorophenyl)-3-(4-(6-(isopropyloxy)pyridin-2-yl)piperazin-1-yl)-1-(1H-1,2,4-triazol-1-yl)butan-2-ol]	8 (≈ 16.9 µM)	4 (≈ 8.46 µM)	8 (≈ 16.9 µM)	0.5 (≈ 1.06 µM)	> 128	0.25 (≈ 0.529 µM)	> 128	> 128	0.125 (≈ 0.265 µM)	2 (≈ 4.23 µM)
C[C@@H](N1CCN(c2ccc(OC3CCCC3)nc2)CC1)[C@](O)(Cn1cncn1)c1ccc(F)cc1F [Example 31, (2R,3R)-3-(4-(6-(cyclopentyloxy)pyridin-3-yl)piperazin-1-yl)-2-(2,4-difluorophenyl)-1-(1H-1,2,4-triazol-1-yl)butan-2-ol]	1 (≈ 2.01 µM)	2 (≈ 4.01 µM)	4 (≈ 8.02 µM)	0.25 (≈ 0.501 µM)	> 128	0.25 (≈ 0.501 µM)	4 (≈ 8.02 µM)	64 (≈ 128 µM)	0.125 (≈ 0.251 µM)	1 (≈ 2.01 µM)
